The results in this text go back to PubChem BioAssay (NCI).

Experiment in all cases: NCI-60 cell line screen, 48 h
For assay [1], the system named is RXF 393 renal.
In assay [2] the test system is CAKI-1 renal.
Assay [3] relates to NCI-H226 lung.
Assay [4] has as its system MDA-N.
The test system of assay [5] is KM12 colon.
Assay [6] concerns TK-10 renal.
Assay [7] has as its system M14 melanoma.
The test system of assay [8] is NCI-H522 lung.
The subject of assay [9] is SK-MEL-28 melanoma.
The subject of assay [10] is EKVX NSCLC.
The test system of assay [11] is SK-MEL-2 melanoma.
The subject of assay [12] is SK-MEL-5 melanoma.
The subject of assay [13] is A549 NSCLC.
Assay [14] has as its system SNB-75 CNS.
Assay [15] deals with RPMI-8226 leukemia.
Assay [16] concerns HS 578T breast.

SMILES strings stand for the structures.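 In this assay, cells in 96-well plates receive the compound at five concentrations for 48 hours. Endpoints are linearly interpolated between the surrounding concentrations. TGI denotes the concentration required for complete inhibition of growth.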 Where a SMILES comes first, the peptide text is derived from it. [ ]: non-standard residue; d: D form. The star is where a group is joined. ξ: configuration not given here. NMeF = CN[C@@H](Cc1ccccc1)C(=O)O; ξNMeV = CNC(C(=O)O)C(C)C; Boc = CC(C)(C)OC(=O)*; OBn = c1ccc(CO*)cc1 Where only a bound is given, the exact number is not on record here.

With `COc1ccc(N2C(=O)/C(=C\c3cccc(Oc4ccccc4)c3)S(=O)(=O)C2c2ccccc2)cc1` (configuration not stated), the TGI in assay [1] was greater than 100 µM; in assay [2], greater than 100 µM; in assay [3], greater than 100 µM; in assay [4], 87.6 µM; in [5] it was greater than 100 µM; in [6], greater than 100 µM. Besides, the TGI is greater than 100 µM in assay [7]; 60.8 µM in assay [8]; greater than 100 µM in [9]; 88 µM in assay [10]; greater than 100 µM in assay [11]; 98.7 µM in assay [12]. In assay [13], this compound returned a TGI greater than 100 µM.
Take `CC(C)OP(=O)(OC(C)C)/C(=N/N)NNc1ccc([N+](=O)[O-])cc1`: the TGI in assay [2], in assay [3], in assay [5], in assay [14], in assay [6] and in assay [7] was greater than 100 µM throughout. The TGI in assay [8], in assay [15], in [9], in [10], in assay [11] and in assay [12] was greater than 100 µM each time. In assay [13], this compound yielded a TGI greater than 100 µM.
Take `COc1ccc([N-]/C(=N\n2c(=O)c(C)nn(C)c2=S)N(c2ccc(OC)cc2)c2nn3c(=O)c(C)n[n+](C)c3s2)cc1`: the TGI in assay [1], in [3], in assay [5], in assay [14], in assay [7] and in assay [8] was greater than 100 µM in each case. For the same compound, the TGI in assay [15], in assay [9], in assay [10], in assay [12] and in [13] was greater than 100 µM each time.
As for `CCOc1ccc(N=Nc2ccc3oc(=O)c(C(=O)Nc4ccc(OC)cc4)cc3c2)cc1`, the TGI in assay [2] is greater than 100 µM; in assay [5] it was greater than 100 µM; in assay [14], 93.7 µM; in [6] it was greater than 100 µM; in [8] it was 87.8 µM; in assay [15], greater than 100 µM. For the same compound, the TGI was 68 µM in assay [9]; 86.7 µM in assay [10]; 54.4 µM in assay [11]; 38.8 µM in [12]; greater than 100 µM in assay [13].
Consider `COc1cc(C(C)c2cc3c(cc2OCCCCOc2cc4c(cc2C(C)c2cc(OC)c(OC)c(OC)c2)OCO4)OCO3)cc(OC)c1OC` (configuration not stated), for which the TGI in [1] was 73.3 µM; in assay [2], greater than 100 µM; in [3] it was 80.6 µM; in [5], greater than 100 µM; in [14], 69.7 µM; in [6] it was greater than 100 µM. The TGI in assay [7] was 99.4 µM; in assay [15], greater than 100 µM; in assay [9], greater than 100 µM; in [10] it was greater than 100 µM; in assay [11], greater than 100 µM; in assay [12], greater than 100 µM. Besides, the TGI in [13] is greater than 100 µM.
Turning to `CC(C)c1cccc(C(C)C)c1NC(=O)C(=O)C(C(=O)c1ccc2ccccc2c1)C1OC(=O)c2ccccc21` (configuration not stated), the TGI in assay [1] is greater than 100 µM; in assay [2] it was greater than 100 µM; in [3], 81.5 µM; in [5], greater than 100 µM; in [7], greater than 100 µM; in [8], greater than 100 µM. The TGI in [15], in assay [9], in assay [10], in assay [11], in assay [12] and in [13] was greater than 100 µM throughout.
In the case of `O=C1c2nn(-c3ccccc3)nc2C(c2ccccc2)N1c1ccccc1` (configuration not stated), the TGI in assay [2] was greater than 100 µM; in assay [3] it was greater than 100 µM; in [5] it was greater than 100 µM; in [14] it was 81.2 µM; in [7], greater than 100 µM; in assay [8], greater than 100 µM. For the same compound, the TGI in assay [15], in [9], in assay [10], in assay [11], in assay [12] and in [13] was greater than 100 µM in each case.
For the compound `O=C1C2CCC(C2)C12CC1(c3ccccc3)C(=O)c3ccccc3N1O2` (configuration not stated), the TGI in [1], in assay [3], in assay [14], in assay [7], in [8] and in assay [15] was greater than 100 µM in each case. Further, the TGI in assay [9], in [10], in assay [12] and in assay [13] was greater than 100 µM throughout.
As to `COc1ccc2c(c1)nc1n2C(c2c(F)cccc2Cl)SC1` (configuration not stated), the TGI in [1] is greater than 22 µM; in [16], 6.4 µM; in [2], greater than 100 µM; in [3], 43.4 µM; in [5], greater than 54.4 µM; in assay [14], 7.85 µM. For the same compound, the TGI in assay [6] was greater than 76.8 µM; in assay [7], greater than 24.7 µM; in [15], greater than 47.8 µM; in assay [9] it was 37.2 µM; in [10] it was greater than 100 µM; in assay [11] it was greater than 27.7 µM. Besides, the values for the TGI in [12] and in [13] were greater than 43.2 µM and greater than 50.6 µM, respectively.
`COC(=O)N/N=C/c1oc(-c2ccccc2)c(-c2ccccc2)c1[N+](=O)[O-]`: the TGI in assay [1], in assay [2], in assay [3], in assay [5], in [14] and in [6] was greater than 100 µM each time. Further, the TGI in assay [7], in [8], in assay [15], in assay [9], in [12] and in assay [13] was greater than 100 µM each time.
On to `COc1ccc(C(C2C(=O)N(C)C(=O)N(C)C2=O)C(F)(F)C(=O)N(C)C)cc1` (configuration not stated), for which the TGI in assay [1], in assay [2], in assay [3], in assay [5], in assay [14] and in [6] was greater than 100 µM throughout. For the same compound, the TGI in assay [7], in assay [15], in [9], in [10], in assay [11] and in [12] was greater than 100 µM throughout. This compound also displayed a TGI in assay [13] greater than 100 µM.
For the compound `CC(C)C(C(=O)N1CCC[C@@H]1C(=O)OCc1ccccc1)N(C)C(=O)C(C(C)C)N(C)C(=O)[C@H](Cc1ccccc1)N(C)C(=O)[C@H](NC(=O)OC(C)(C)C)C(C)C` (some centres not stated) (Boc-[dV][NMeF][ξNMeV][ξNMeV][dP]-OBn), the TGI in assay [1], in assay [3], in [5], in assay [14], in [6] and in assay [7] was greater than 100 µM in each case. Besides, the TGI in assay [8], in [15], in assay [9], in assay [10], in [11] and in assay [12] was greater than 100 µM throughout. Moreover, the TGI in assay [13] is greater than 100 µM.
In the case of `CC(C)C(=O)/C=C/c1ccc(Cl)cc1`, the TGI in assay [1] came to 35.5 µM; in [5], 23.8 µM; in [14] it was 33.4 µM; in [7] it was 33 µM; in assay [8] it was 30.4 µM; in assay [15], 67.2 µM. For the same compound, the TGI in [11] was found to be 35.4 µM; in assay [12], 21.7 µM; in [13] it was 59.7 µM.
With `CCCCNC(=O)Nc1c(C(N)=O)c2n(c1C(=O)OCC)CCCCC2`, the TGI in assay [1], in assay [16], in [2], in assay [3], in assay [5] and in assay [14] was greater than 100 µM in each case. In addition, the TGI in assay [6], in assay [7], in assay [15], in assay [9], in assay [10] and in [11] was greater than 100 µM throughout. For the same compound, in assay [12], the TGI is greater than 100 µM.
As to `C[C@@H](NC(=O)OC1C=CC2(CC1)C(=O)N(C)c1ccccc12)c1cccc2ccccc12` (some centres not stated), the TGI in [2], in [3], in assay [4], in assay [5], in assay [14] and in assay [6] was greater than 25 µM throughout. Moreover, the TGI in assay [7], in assay [8], in [15], in assay [9], in assay [10] and in [11] was greater than 25 µM in each case. Further, the TGI in assay [12] and in assay [13] was greater than 25 µM each time.
Regarding `NC(=S)N1N=C2c3ccccc3CC[C@H]2[C@@H]1c1cccs1`, the TGI in assay [1] was 83 µM; in assay [3] it was greater than 100 µM; in assay [5], greater than 100 µM; in assay [6], greater than 100 µM; in assay [7], 60.8 µM; in assay [8], 56.1 µM. Besides, the TGI in [15] is greater than 100 µM; in assay [9], greater than 100 µM; in assay [10], greater than 100 µM; in assay [11], 79 µM; in [13], greater than 100 µM.
Turning to `CC1(C)C2CCC3(OCCO3)C1C1OC12` (configuration not stated), the TGI in assay [1], in [2], in assay [3], in [5], in assay [14] and in [6] was greater than 100 µM each time. Further, the TGI in assay [7], in assay [8], in assay [15], in assay [9], in assay [10] and in [11] was greater than 100 µM in each case. The TGI in assay [12] and in [13] was greater than 100 µM in each case.
Consider `Oc1c(-c2ccccc2)sc2ccccc12`, for which the TGI in [1] is 45.1 µM; in assay [16], greater than 100 µM; in assay [2], 13.6 µM; in assay [3], 64.4 µM; in assay [5], 75.6 µM; in assay [14], 52.1 µM. In addition, the TGI in assay [6] is greater than 100 µM; in [7], 50.6 µM; in assay [8], greater than 100 µM; in assay [15], 43.5 µM; in assay [9] it was greater than 100 µM; in assay [10], 86.6 µM. Besides, the TGI was determined as 41 µM in assay [11], 54.5 µM in assay [12] and 81.4 µM in assay [13].
Turning to `O=c1cc(CC(O)(C(F)(F)Cl)C(F)(F)Cl)[nH]n1-c1ccccc1`, the TGI in assay [1], in assay [16], in assay [3], in assay [5], in assay [14] and in assay [6] was greater than 100 µM in each case. The TGI in assay [7], in assay [15], in [9], in assay [10], in assay [12] and in [13] was greater than 100 µM throughout.
As to `OCC1OC(n2nc(-c3ccccc3)nc2-c2cnccn2)C(O)C1O` (configuration not stated), the TGI in assay [4], in [5], in assay [14], in [6], in assay [7] and in assay [8] was greater than 100 µM in each case. In addition, the TGI in assay [9], in assay [10], in assay [12] and in assay [13] was greater than 100 µM in each case.
Consider `COC(=O)C1C2C=CC(C2)N1S(=O)(=O)c1ccccc1` (configuration not stated), for which the TGI in [1], in [2], in assay [4], in [5], in assay [6] and in [7] was greater than 100 µM in each case. The TGI in [8], in [15], in [9], in [11], in assay [12] and in [13] was greater than 100 µM each time.
